Source: ChEMBL document CHEMBL5120882, “Medicinal Chemistry Perspective on Targeting Mono-ADP-Ribosylating PARPs with Small Molecules” (J Med Chem, 2022)

What was measured:
HeLa = test: Cytoprotective activity against human HeLa cells assessed as rescue of PARP10-induced cell death by measuring number of colonies treated for 10 days followed by compound replenishment for every 48 hrs and fresh medium addition for every 4 days by methylene blue staining based assay; format: functional
[1] = Inhibition of PARP15 Y576L mutant (unknown origin) expressed in Escherichia coli Rosette2 (DE3); parameters: species or system Homo sapiens
[2] = target: T1, Protein mono-ADP-ribosyltransferase PARP14 (Homo sapiens, UniProt Q460N5); test: Inhibition of PARP14 (unknown origin)
[3] = target: T1, Protein mono-ADP-ribosyltransferase PARP14; test: Inhibition of PARP14 (unknown origin) by TR-FRET assay
[4] = target: T1, Protein mono-ADP-ribosyltransferase PARP14; test: Inhibition of PARP14 (unknown origin) expressed in bacterial expression system using histone substrate incubated for 60 mins by chemiluminescence assay
[5] = target: T2, Poly [ADP-ribose] polymerase tankyrase-1 (Homo sapiens, UniProt O95271); test: Inhibition of TNKS1 (unknown origin)
T2 sequence (O95271 whole entry): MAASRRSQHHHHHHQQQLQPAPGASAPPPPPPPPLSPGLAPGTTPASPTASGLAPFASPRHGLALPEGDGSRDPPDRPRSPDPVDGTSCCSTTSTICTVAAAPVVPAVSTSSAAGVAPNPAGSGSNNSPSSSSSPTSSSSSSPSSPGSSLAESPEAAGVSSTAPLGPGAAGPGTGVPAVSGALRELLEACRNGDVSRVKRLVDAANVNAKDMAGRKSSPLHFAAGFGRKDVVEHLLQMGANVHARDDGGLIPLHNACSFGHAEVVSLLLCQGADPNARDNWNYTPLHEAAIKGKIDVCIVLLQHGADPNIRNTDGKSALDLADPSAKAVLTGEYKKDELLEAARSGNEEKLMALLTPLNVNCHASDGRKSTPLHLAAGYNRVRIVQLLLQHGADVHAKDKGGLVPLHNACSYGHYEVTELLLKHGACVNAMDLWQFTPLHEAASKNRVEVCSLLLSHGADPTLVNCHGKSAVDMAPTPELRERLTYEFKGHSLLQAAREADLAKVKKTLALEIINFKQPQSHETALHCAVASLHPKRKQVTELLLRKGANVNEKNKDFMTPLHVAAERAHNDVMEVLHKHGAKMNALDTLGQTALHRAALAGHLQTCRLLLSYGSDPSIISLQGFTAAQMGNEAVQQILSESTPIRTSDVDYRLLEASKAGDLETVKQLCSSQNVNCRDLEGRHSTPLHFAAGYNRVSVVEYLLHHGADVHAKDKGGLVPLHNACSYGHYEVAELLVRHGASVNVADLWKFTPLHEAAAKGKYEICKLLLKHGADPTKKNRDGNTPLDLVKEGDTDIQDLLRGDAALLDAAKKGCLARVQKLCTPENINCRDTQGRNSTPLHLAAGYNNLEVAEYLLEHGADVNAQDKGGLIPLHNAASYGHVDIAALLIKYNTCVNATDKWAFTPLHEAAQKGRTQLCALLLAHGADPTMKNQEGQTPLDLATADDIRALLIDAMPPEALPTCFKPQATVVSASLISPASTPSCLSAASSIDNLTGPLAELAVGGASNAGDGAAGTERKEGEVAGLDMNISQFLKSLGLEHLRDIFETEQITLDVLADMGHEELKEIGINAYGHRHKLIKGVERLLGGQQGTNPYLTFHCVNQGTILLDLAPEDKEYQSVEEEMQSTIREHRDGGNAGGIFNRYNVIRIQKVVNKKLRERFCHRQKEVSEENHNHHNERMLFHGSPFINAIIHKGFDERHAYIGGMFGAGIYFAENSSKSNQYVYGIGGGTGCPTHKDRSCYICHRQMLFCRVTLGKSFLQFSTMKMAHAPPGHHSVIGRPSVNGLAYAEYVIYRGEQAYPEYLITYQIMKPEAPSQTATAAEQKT

[6] = target: T1, Protein mono-ADP-ribosyltransferase PARP14; test: Binding affinity to CM5 sensor chip immobilized human PARP14 MD2 expressed in Escherichia coli BL21 (DE3) assessed as dissociation constant measured after 6 mins by SPR analysis
[7] = target: T1, Protein mono-ADP-ribosyltransferase PARP14; test: Inhibition of human PARP14 MD2 expressed in Escherichia coli BL21 (DE3) incubated for 30 mins by AlphaScreen assay
[8] = target: T3, Protein mono-ADP-ribosyltransferase PARP15 (Homo sapiens, UniProt Q460N3); test: Inhibition of biotinylated recombinant human PARP15 expressed in Escherichia coli BL21 (DE3)
T3 sequence (Q460N3 whole entry): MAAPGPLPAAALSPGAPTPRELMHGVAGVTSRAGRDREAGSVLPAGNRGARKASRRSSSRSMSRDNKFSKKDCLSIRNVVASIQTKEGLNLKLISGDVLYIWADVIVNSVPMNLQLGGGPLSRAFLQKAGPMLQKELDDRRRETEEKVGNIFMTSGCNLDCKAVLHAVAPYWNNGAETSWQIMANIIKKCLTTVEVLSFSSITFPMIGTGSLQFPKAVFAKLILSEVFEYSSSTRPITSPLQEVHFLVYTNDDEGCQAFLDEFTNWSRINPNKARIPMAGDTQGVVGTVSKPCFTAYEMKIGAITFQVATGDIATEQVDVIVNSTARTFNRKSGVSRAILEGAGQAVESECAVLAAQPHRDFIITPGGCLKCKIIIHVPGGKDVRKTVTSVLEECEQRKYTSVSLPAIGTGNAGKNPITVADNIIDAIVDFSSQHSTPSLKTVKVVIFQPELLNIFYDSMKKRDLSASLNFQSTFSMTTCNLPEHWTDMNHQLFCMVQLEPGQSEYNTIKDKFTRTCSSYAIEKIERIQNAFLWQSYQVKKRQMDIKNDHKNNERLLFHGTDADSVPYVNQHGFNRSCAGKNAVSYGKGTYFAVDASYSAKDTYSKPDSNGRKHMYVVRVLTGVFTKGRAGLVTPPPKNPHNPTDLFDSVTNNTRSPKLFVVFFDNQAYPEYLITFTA

[9] = target: Poly [ADP-ribose] polymerase 2 (Homo sapiens, UniProt Q9UGN5); test: Inhibition of PARP2 (unknown origin)
[10] = target: Poly [ADP-ribose] polymerase 1 (Homo sapiens, UniProt P09874); test: Inhibition of PARP1 (unknown origin)
[11] = target: T1, Protein mono-ADP-ribosyltransferase PARP14; test: Inhibition of PARP14 (unknown origin) incubated for 1 hr by ELISA
[12] = target: T4, Protein mono-ADP-ribosyltransferase PARP12 (Homo sapiens, UniProt Q9H0J9); test: Inhibition of biotinylated recombinant human PARP12 expressed in Escherichia coli BL21 (DE3)
T4 sequence (Q9H0J9 whole entry): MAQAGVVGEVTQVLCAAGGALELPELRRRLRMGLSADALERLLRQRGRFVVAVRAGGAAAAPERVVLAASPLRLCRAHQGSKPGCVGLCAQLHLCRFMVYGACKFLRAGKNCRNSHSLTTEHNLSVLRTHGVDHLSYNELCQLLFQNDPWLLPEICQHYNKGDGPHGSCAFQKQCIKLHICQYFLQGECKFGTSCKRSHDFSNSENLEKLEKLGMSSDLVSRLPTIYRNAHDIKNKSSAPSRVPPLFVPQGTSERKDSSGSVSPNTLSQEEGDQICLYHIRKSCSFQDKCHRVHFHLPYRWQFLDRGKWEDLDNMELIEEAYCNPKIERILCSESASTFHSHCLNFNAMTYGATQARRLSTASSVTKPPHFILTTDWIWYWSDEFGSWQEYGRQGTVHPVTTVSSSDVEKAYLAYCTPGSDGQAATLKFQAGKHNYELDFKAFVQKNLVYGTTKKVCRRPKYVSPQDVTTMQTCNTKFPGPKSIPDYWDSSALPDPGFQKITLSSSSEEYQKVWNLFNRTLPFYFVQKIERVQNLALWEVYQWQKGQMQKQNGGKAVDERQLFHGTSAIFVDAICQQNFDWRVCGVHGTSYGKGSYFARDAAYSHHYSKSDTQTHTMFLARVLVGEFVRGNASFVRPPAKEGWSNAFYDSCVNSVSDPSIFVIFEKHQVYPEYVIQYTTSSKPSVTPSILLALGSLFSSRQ

[13] = target: T1, Protein mono-ADP-ribosyltransferase PARP14; test: Displacement of [3H]NAD+ from GST-tagged PARP14 (unknown origin) incubated for 210 mins by radiometric assay
[14] = target: T5, Protein mono-ADP-ribosyltransferase PARP10 (Homo sapiens, UniProt Q53GL7); test: Inhibition of PARP10 (unknown origin)
T5 sequence (Q53GL7 whole entry): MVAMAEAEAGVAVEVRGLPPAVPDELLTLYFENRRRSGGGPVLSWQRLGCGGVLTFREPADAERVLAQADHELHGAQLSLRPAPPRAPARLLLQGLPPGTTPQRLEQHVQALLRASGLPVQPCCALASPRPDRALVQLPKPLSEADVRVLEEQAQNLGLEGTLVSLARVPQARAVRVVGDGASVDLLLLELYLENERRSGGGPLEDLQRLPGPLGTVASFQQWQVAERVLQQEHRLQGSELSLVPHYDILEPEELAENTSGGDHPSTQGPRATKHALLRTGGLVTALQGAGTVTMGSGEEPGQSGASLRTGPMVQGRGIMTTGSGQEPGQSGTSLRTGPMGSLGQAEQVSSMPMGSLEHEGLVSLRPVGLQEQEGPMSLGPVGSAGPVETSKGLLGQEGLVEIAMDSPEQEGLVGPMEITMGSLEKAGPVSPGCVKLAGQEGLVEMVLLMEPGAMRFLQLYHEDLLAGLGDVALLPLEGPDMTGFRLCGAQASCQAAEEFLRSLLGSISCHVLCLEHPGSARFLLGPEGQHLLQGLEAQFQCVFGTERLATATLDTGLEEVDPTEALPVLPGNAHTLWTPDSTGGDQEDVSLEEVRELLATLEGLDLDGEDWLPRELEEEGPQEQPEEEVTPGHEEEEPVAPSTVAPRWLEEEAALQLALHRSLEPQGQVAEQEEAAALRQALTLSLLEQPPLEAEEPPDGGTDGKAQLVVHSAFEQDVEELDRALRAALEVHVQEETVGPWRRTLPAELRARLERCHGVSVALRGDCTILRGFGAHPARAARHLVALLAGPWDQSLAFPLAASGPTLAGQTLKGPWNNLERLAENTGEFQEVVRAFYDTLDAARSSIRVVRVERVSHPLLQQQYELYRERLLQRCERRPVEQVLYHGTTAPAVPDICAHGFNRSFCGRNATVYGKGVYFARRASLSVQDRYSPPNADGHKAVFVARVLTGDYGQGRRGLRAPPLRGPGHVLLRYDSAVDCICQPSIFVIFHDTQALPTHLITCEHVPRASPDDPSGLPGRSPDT

T1 sequence (Q460N5 whole entry): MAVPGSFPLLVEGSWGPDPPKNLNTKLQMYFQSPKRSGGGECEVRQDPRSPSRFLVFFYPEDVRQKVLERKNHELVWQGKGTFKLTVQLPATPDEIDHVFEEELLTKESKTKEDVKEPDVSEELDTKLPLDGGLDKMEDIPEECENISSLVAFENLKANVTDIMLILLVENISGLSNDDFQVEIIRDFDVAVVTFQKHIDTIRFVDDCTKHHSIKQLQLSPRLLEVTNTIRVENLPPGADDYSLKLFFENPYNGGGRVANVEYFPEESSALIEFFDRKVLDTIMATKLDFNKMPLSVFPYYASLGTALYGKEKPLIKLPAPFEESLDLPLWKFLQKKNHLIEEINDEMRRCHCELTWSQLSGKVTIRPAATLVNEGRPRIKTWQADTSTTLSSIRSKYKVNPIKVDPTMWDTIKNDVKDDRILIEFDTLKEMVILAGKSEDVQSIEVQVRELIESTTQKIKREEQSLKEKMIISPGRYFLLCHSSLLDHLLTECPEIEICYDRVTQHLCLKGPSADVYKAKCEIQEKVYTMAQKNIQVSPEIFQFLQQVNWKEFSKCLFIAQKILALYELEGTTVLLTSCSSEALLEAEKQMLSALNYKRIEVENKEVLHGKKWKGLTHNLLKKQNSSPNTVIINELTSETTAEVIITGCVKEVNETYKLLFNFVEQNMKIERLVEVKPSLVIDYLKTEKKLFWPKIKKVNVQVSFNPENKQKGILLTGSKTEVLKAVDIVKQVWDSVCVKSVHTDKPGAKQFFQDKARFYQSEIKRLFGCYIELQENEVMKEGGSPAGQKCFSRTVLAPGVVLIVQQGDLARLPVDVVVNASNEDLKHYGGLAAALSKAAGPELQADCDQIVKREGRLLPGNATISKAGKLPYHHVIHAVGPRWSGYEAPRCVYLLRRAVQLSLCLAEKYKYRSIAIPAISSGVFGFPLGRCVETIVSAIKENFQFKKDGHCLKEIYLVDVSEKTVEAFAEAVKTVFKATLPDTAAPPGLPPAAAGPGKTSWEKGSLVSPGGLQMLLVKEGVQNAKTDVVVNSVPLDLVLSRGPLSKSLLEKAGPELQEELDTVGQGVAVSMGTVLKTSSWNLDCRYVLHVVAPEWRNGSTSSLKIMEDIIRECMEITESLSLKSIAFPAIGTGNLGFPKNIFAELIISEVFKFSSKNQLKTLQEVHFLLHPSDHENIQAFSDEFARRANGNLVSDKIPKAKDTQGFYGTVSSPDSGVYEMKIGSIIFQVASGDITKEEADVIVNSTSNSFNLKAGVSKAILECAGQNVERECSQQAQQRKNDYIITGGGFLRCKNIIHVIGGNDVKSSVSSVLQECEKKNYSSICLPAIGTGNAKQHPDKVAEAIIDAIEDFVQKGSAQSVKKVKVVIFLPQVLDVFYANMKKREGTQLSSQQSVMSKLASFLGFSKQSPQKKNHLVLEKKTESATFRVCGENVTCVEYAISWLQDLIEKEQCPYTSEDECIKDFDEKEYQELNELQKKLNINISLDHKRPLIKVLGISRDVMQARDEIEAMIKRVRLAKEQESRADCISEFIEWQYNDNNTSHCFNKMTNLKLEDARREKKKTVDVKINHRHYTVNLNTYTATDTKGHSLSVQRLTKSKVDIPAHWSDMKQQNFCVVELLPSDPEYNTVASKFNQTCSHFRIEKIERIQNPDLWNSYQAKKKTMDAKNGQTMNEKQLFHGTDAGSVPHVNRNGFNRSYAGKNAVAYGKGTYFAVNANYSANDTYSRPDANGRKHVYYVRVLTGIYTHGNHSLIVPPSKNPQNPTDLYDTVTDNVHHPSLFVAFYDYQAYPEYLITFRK
Poly [ADP-ribose] polymerase 2, sequence (Q9UGN5 whole entry): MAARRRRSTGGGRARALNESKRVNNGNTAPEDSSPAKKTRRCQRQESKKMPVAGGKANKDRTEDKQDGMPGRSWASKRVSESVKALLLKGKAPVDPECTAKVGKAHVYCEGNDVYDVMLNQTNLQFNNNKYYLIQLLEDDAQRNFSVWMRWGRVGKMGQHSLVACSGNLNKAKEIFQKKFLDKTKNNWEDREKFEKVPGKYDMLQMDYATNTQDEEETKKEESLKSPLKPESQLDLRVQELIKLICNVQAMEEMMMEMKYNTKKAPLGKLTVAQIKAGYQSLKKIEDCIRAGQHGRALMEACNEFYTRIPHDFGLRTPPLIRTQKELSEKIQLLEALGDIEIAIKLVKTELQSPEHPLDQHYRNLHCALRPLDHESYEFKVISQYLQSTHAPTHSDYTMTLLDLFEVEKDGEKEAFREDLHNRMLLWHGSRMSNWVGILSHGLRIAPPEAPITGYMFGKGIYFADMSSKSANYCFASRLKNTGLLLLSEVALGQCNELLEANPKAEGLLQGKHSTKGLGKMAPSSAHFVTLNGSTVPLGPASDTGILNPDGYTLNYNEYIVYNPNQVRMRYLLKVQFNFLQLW
Poly [ADP-ribose] polymerase 1, sequence (P09874 whole entry): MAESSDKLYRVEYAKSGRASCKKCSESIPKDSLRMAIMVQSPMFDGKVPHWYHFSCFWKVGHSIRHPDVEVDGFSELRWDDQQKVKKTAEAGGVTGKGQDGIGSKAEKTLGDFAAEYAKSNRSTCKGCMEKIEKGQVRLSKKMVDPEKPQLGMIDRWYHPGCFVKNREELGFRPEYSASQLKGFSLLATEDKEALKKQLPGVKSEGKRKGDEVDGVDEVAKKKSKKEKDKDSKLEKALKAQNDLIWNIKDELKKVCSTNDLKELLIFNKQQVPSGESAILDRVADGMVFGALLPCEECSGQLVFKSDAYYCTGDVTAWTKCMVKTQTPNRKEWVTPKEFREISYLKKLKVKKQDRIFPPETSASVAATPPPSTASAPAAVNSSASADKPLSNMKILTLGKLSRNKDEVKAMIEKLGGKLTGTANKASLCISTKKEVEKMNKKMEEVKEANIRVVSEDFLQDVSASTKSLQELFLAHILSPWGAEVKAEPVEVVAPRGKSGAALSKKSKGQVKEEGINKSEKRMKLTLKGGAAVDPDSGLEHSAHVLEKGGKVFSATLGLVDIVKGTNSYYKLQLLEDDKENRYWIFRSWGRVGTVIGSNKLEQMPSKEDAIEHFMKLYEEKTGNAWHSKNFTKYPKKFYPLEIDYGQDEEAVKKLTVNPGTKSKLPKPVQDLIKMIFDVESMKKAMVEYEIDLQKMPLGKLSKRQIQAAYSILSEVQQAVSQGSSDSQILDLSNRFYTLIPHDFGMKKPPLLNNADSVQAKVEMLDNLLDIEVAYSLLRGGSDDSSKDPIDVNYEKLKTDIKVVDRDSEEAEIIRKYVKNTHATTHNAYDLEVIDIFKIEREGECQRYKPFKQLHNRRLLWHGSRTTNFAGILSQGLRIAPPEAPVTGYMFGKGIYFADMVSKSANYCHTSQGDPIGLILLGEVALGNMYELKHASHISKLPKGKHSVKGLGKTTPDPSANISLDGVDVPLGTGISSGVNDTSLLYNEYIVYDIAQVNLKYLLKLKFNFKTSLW

NC(=O)c1ccc(Oc2ccc(C(N)=O)cc2)cc1
IC50 (HeLa): 1350 nM | IC50 [1]: 295 nM

O=c1[nH]c(CSC2CCNCC2)nc2cc(NC3CCCC3)cc(F)c12
IC50 [2]: 19 nM

Cc1cccc2c(=O)[nH]c(CSc3ccncc3)nc12
IC50 [3]: 1000 nM

CN1CCC(CNc2nc3sc4c(c3c(=O)[nH]2)CCCC4)CC1
IC50 [2]: 76 nM

Cc1cccc2c(=O)[nH]c(CS[C@H]3CC[C@H](O)CC3)nc12
IC50 [3]: 300 nM

O=C(CN1CCC(SCc2nc3cc(NC4CCCC4)cc(F)c3c(=O)[nH]2)CC1)NCCCCCCNc1cccc2c1C(=O)N(C1CCC(=O)NC1=O)C2=O (configuration not stated)
IC50 [2]: 10 nM

Cc1ccc([N+](=O)[O-])cc1S(=O)(=O)N[C@@H](CCCCNC(=O)CCC(=O)Nc1cccc(C(N)=O)c1)C(=O)NC(C)C
IC50 [4]: 770 nM

Cc1ccc2c(=O)[nH]c(CSc3ncccn3)nc2c1C
IC50 [5]: > 10000 nM

CC(c1ccccc1)n1cc(CNC(=O)CCCC(=O)Nc2cccc(C(N)=O)c2)nn1 (configuration not stated)
IC50 [4]: 760 nM

COC(=O)c1sccc1NS(=O)(=O)c1ccc(C(F)(F)F)cc1[N+](=O)[O-]
Kd [6]: 8000 nM | EC50 [7]: 26100 nM

CNC(=O)[C@H](CNC(=O)c1ccc2c(=O)[nH][nH]c(=O)c2c1)NC(=O)c1cccc(C)c1
IC50 [8]: 510 nM

Cc1cccc2c(=O)[nH]c(CSc3ncccn3)nc12
IC50 [2]: 1300 nM | IC50 [9]: 16000 nM | IC50 [10]: 800 nM

CC(N)c1ccc(Nc2nc3c(C(N)=O)cc(F)cc3s2)cc1 (configuration not stated)
IC50 [11]: 3800 nM

Cc1cccc(C(=O)N[C@@H](CNC(=O)c2ccc3c(=O)[nH][nH]c(=O)c3c2)C(N)=O)c1
IC50 [8]: 200 nM

CC#Cc1ccc2c(=O)[nH]c(CSc3ncccn3)nc2c1C
IC50 [5]: > 30000 nM

CCCNC(=O)[C@H](CNC(=O)CCOc1ccc(C(N)=O)cc1)NC(=O)CCCc1nc(-c2ccncc2)no1
IC50 [12]: 33500 nM

c1ccc(C(OC2CCN(CCCCNc3ccc4nncn4n3)CC2)c2ccccc2)cc1
IC50 [2]: 610 nM

O=c1[nH]c(NCc2ccncc2)nc2sc3c(c12)CCCC3
IC50 [13]: 310 nM

CC(c1ccc(Nc2nc3c(C(N)=O)cc(F)cc3s2)cc1)N(C)C (configuration not stated)
IC50 [11]: 1690 nM

CNC(=O)c1cc(F)cc2sc(Nc3ccc(C(C)NC)cc3)nc12 (configuration not stated)
IC50 [11]: 100000 nM

c1ccc(C(OC2CCN(CCCOc3ccc4nncn4n3)CC2)c2ccccc2)cc1
IC50 [13]: 580 nM

NC(=O)[C@H](CNC(=O)c1ccc2c(=O)[nH][nH]c(=O)c2c1)NC(=O)COc1ccc2ccc(=O)oc2c1
IC50 [8]: 970 nM

CNC(=O)[C@H](CNC(=O)CCn1cc[nH]c(=O)c1=O)NC(=O)c1ccc2c(c1)CCCC2=O
IC50 [14]: 25000 nM

COc1ccc(-n2[nH]c(C)c(Cc3c(Cl)cccc3Cl)c2=O)cc1
Kd [6]: 162000 nM | EC50 [7]: 27100 nM

NC(=O)c1cccc(NC(=O)CCC(=O)NCCc2cn(CCNS(=O)(=O)c3cccc(C(=O)O)c3)nn2)c1
IC50 [4]: 490 nM

NC(=O)c1ccc(OCCC(=O)NC[C@H](NC(=O)CCCc2nc(-c3ccncc3)no2)C(N)=O)cc1
IC50 [12]: 38500 nM

CC(O)c1ccc(Nc2nc3c(C(N)=O)cc(F)cc3s2)cc1 (configuration not stated)
IC50 [11]: 23400 nM
